What was measured:
Trichophyton tonsurans = assay: Antidermatophyte activity, plaque growth inhibition; format: cell-based, Trichophyton tonsurans CBS 483.76; settings: 100 μg/mL, SDA, read-out: % Inhibition Growth T. tonsurans
Description: (§1) The dermatophytes used in this study were Epidermophyton floccosum var. floccosum (Netherlands) CBS 358.93 strain, Trichophyton tonsurans (Netherlands) CBS 483.76 strain, Trichophyton mentagrophytes (Netherlands) CBS 160.66 strain, Microsporum canis (Iran) CBS 131,110 strain, and Microsporum gypseum (Iran) CBS 130,948 strain. All dermatophytes were maintained at 4 °C as agar slants on SDA. Candida albicans (ATCC 10231) was maintained at 4 °C on SDA plate.
(§2) The in vitro antifungal activity against the five selected dermatophytes was evaluated, as previously described, using the plaque growth inhibition method. All compounds were evaluated at the final concentration of 100 µg/mL. The percentages of growth inhibition according to Equation (5) were calculated as the average of three different experiments. I = [(C − T)/C] × 100%,(5) where I is the percentage value of growth inhibition, C is the measure of the diameter of the control circular mycelial inoculum (mm) and T is the extended diameter of the treated mycelial inoculum (mm).
(§3) All synthesized benzothiazole derivatives were evaluated to evaluate their in vitro antifungal activity against the five pathogenic dermatophytes that cause the most common dermatomycoses: Microsporum gypseum, Microsporum canis, Trichophyton mentagrophytes, Trichophyton tonsurans and Epidermophyton floccosum. All compounds were tested at a concentration of 100 µg/mL in DMSO, to evaluate the ability to inhibit the growth of dermatophyte cultures in Sabouraud Dextrose Agar (SDA). Briefly, room temperature incubation was performed and dermatophyte inhibition assessed by measuring the colony diameter at each disc for 7 days. The results are shown in Table 3 and were determined as the average of three different experiments.

[1] = Filtering parameters (in vitro SPF, UVAPF, UVA/UVB, critical wavelength) of W/O formulations on PMMA plates; format: physicochemical
Description: The synthesized derivatives were incorporated at increasing concentrations (1%, 2% and 3%) in a topical W/O cosmetic standard formulation, to evaluate the filtering parameters, having the following ingredients composition.
INCI (International Nomenclature Cosmetic Ingredients): aqua, glycerin, Euxyl PE 9010, xanthan gum, ceteareth-12, ceteareth-20, sterearic acid, butylhydroxytoluene, myritol, PEG-7 glyceryl cocoate and 10% sodium solution.
Briefly, the protocol is to finger spread 32.5 mg of each formulation onto 25 cm2 PMMA plates. Each formulation was tested in triplicate by recording five measurements for each dish, after incubation in the dark for 15–30 min at room temperature. UV transmittance data were recorded in the range 290–400 nm using a UV-VIS spectrophotometer.
Blank plate, SPF, UVA-PF and Critical Wavelength were achieved through SPF Calculator Software (version 2.1), Shimadzu, Milan, Italy) as previously reported.
For the determination of the SPF in vitro of the samples in formulation it was decided to use an internal method, developed by us previously and based on the adaptation of the ISO 24443: 2012 [38]. The transmittance spectrum, processed with a specific software (SPF Calculator), made it possible to obtain the SPF, UVAPF, critical lambda and UVA/UVB ratio values of the formulations containing the selected active ingredients (Table 1).

[2] = UV spectra of compounds in solution (filtering parameters); format: physicochemical
Description: The evaluation of the sun protection parameters has been carried out using a UV-Vis spectrophotometer. The absorbance of the solutions of the test compounds dissolved in the different solvents (DMSO, MeOH, DMSO–H2O 4:6, DMSO–H2O 6:4, HE) at a concentration of 0.0015 (±0.000005)% was recorded in the range 290–400 nm using a 1 cm quartz cell at 1 nm intervals. It was decided to evaluate the profile of the compounds in the Peg-7 Glyceryl Cocoate (HE) oil, which is the emollient of choice to solubilize the compounds in a formulation suitable for in vivo analysis. Wavelength absorbance is in relationship with transmittance (T (λ)) from Equation (2) A (λ) = […](2) where T (λ) is the fraction of incident irradiance that is transmitted through a sample.
The three parameters were determined, respectively, in DMSO and in methanol in order to perform a comparison (Table S1).
Since DMSO is a solvent with characteristics very close to those of an oil, the analysis was also carried out in solutions that mimic the possible conditions of a formulation. For this reason, the 4:6 and 6:4 proportions of DMSO–H2O were chosen to evaluate the choice of an oil-in-water or water-in-oil emulsion.

In vitro DPPH test = settings: for DPPH (% Inhibition): compounds at 1 mg/mL, 30 min, 517 nm
Description: The assay performed is adapted from Wang et al.. Briefly, 0.750 mL of 1 mg/mL solutions of the tested compounds was treated with 1.5 mL of DPPH solution in MeOH. The absorbance of samples, stored for 30 min at room temperature in the dark, was read on the spectrophotometer at 517 nm. The values obtained were converted into a radical inhibition percentage (%) by Equation (1). DPPH radical scavenging capacity (%) = [1 − A1/A0] × 100%(1) where A0 and A1 were, respectively, the absorbance without and with the sample. Subsequently, the compound with the best profile was tested in order to determine the IC50 (µg/mL). A linear regression plot is performed to calculate the actual sample concentration required to eliminate 50% of the DPPH free radicals.
The antioxidant activity of a molecule is very important and, if present, it can be synergistic with the SPF described above in reducing the damage that is ROS-induced by UV rays. For this reason, the synthesized compounds were assayed in vitro to assess their antioxidant profiles by means of the DPPH and FRAP assays (Table 2). Regarding the ability to scavenge the stable radical 2,2-diphenyl-1-picrylhydrazyl (DPPH), it was decided to investigate first the compounds synthesized at the same concentration (1 mg/mL) and evaluate the percentage of inhibition of the radical DPPH.

Microsporum canis = assay: Antidermatophyte activity, plaque growth inhibition; format: cell-based, Microsporum canis CBS 131,110; settings: 100 μg/mL, SDA, read-out: % Inhibition Growth M. canis
Description: as §1, §2, §3

| SMILES | UVA/UVB ([1]; 1% in W/O formulation) | λc ([1]; 1% in W/O formulation) [nm] | UVA/UVB ([1]; 2% in W/O formulation) | λc ([1]; 2% in W/O formulation) [nm] | UVA/UVB ([1]; 3% in W/O formulation) | λc ([1]; 3% in W/O formulation) [nm] | A (absorbance) ([2]; DMSO) | ε (molar extinction coefficient) ([2]; DMSO) | λmax ([2]; DMSO) [nm] | A (absorbance) ([2]; MeOH) | ε (molar extinction coefficient) ([2]; MeOH) | inhibition at 100 µg/mL (Trichophyton tonsurans) [%] | SPF ([1]; 1% in W/O formulation) | UVAPF ([1]; 1% in W/O formulation) | SPF ([1]; 2% in W/O formulation) | UVAPF ([1]; 2% in W/O formulation) | SPF ([1]; 3% in W/O formulation) | UVAPF ([1]; 3% in W/O formulation) | DPPH (% Inhibition) (In vitro DPPH test) [%] | inhibition at 100 µg/mL (Microsporum canis) [%] | other results |
| --- | --- | --- | --- | --- | --- | --- | --- | --- | --- | --- | --- | --- | --- | --- | --- | --- | --- | --- | --- | --- | --- |
| c1csc(-c2nc3ccccc3s2)c1 [Compound 10a, 2-(Thiophen-2-Yl)benzothiazole] | 0.69 | 347 | 0.62 | 347 | 0.45 | 349 | 0.880 | 12735.17 | 321.80 | 0.760 | 9706.26 | 64.5 ± 0.92 | 4.86 | 1.60 | 5.14 | 1.60 | 10.73 | 2.02 | 85.00 ± 0.88 | 66 ± 0.82 | A (absorbance) ([2]; DMSO-H2O 4:6): 0.75; ε (molar extinction coefficient) ([2]; DMSO-H2O 4:6): 12520.868; λmax ([2]; DMSO-H2O 4:6): 322.67 nm; A (absorbance) ([2]; DMSO-H2O 6:4): 1.29; ε (molar extinction coefficient) ([2]; DMSO-H2O 6:4): 21535.893; λmax ([2]; DMSO-H2O 6:4): 323.00 nm; A (absorbance) ([2]; HE (Peg-7 Glyceryl Cocoate)): 1.32; ε (molar extinction coefficient) ([2]; HE (Peg-7 Glyceryl Cocoate)): 14316.703; λmax ([2]; HE (Peg-7 Glyceryl Cocoate)): 320.30 nm; λmax ([2]; MeOH): 319.50 nm |
| NS(=O)(=O)c1ccc2nc(-c3cccs3)sc2c1 [Compound 10c, 2-(Thiophen-2-Yl)benzothiazole-6-Sulfonamide] |  |  |  |  |  |  | 0.890 | 20273.35 | 336.50 | 0.430 | 9704.99 | 6.35 ± 0.02 |  |  |  |  |  |  | 21.82 ± 0.06 | 14.3 ± 0.7 | λmax ([2]; MeOH): 333.17 nm |
| c1c[nH]c(-c2nc3ccccc3[nH]2)c1 [Lead 10, reference compound] | 0.70 | 341 | 0.73 | 357 | 0.75 | 364 |  |  |  |  |  | 96.97 ± 0.62 | 2.44 | 1.16 | 2.72 | 1.32 | 3.06 | 1.54 | 70.00 ± 3.25 | 96.8 ± 3.56 | DPPH IC50 (In vitro DPPH test): 64 ± 3 µg/mL |

Second part, led by results:

| UVA/UVB ([1]; 1% in W/O formulation) | λc ([1]; 1% in W/O formulation) [nm] | UVA/UVB ([1]; 2% in W/O formulation) | λc ([1]; 2% in W/O formulation) [nm] | UVA/UVB ([1]; 3% in W/O formulation) | λc ([1]; 3% in W/O formulation) [nm] | A (absorbance) ([2]; DMSO) | ε (molar extinction coefficient) ([2]; DMSO) | λmax ([2]; DMSO) [nm] | A (absorbance) ([2]; MeOH) | ε (molar extinction coefficient) ([2]; MeOH) | SMILES | inhibition at 100 µg/mL (Trichophyton tonsurans) [%] | SPF ([1]; 1% in W/O formulation) | UVAPF ([1]; 1% in W/O formulation) | SPF ([1]; 2% in W/O formulation) | UVAPF ([1]; 2% in W/O formulation) | SPF ([1]; 3% in W/O formulation) | UVAPF ([1]; 3% in W/O formulation) | DPPH (% Inhibition) (In vitro DPPH test) [%] | inhibition at 100 µg/mL (Microsporum canis) [%] | other results |
| --- | --- | --- | --- | --- | --- | --- | --- | --- | --- | --- | --- | --- | --- | --- | --- | --- | --- | --- | --- | --- | --- |
| 0.34 | 337 | 0.18 | 341 | 0.13 | 343 | 1.620 | 21715.82 | 322.10 | 2.750 | 32505.91 | c1coc(-c2nc3ccccc3s2)c1 [Compound 9a, 2-(Furan-2-Yl)benzothiazole] | 57.9 ± 0.76 | 6.42 | 1.26 | 14.18 | 1.60 | 20.23 | 1.50 | 24.69 ± 0.14 | 64 ± 0.72 | A (absorbance) ([2]; DMSO-H2O 4:6): 2.43; ε (molar extinction coefficient) ([2]; DMSO-H2O 4:6): 34863.702; λmax ([2]; DMSO-H2O 4:6): 322.77 nm; A (absorbance) ([2]; DMSO-H2O 6:4): 1.95; λmax ([2]; DMSO-H2O 6:4): 323.00 nm; A (absorbance) ([2]; HE (Peg-7 Glyceryl Cocoate)): 1.18; ε (molar extinction coefficient) ([2]; HE (Peg-7 Glyceryl Cocoate)): 15817.594; λmax ([2]; HE (Peg-7 Glyceryl Cocoate)): 320.70 nm; λmax ([2]; MeOH): 316.40 nm |
| 1.17 | 354 | 0.92 | 353 | 0.66 | 354 | 2.360 | 29500.00 | 333.40 | 1.540 | 23692.31 | c1c[nH]c(-c2nc3ccccc3s2)c1 [Compound 8a, 2-(1H-Pyrrol-2-Yl)benzothiazole] | 7.46 ± 0.05 | 4.19 | 2.17 | 7.16 | 2.46 | 13.05 | 2.88 | 29.17 ± 1.05 | 25 ± 1.61 | UVA protection profile ([1]; UVA-PF at least 1/3 of SPF to be efficient): good UVA protection profile; A (absorbance) ([2]; DMSO-H2O 4:6): 2.35; ε (molar extinction coefficient) ([2]; DMSO-H2O 4:6): 31333.333; λmax ([2]; DMSO-H2O 4:6): 333.70 nm; A (absorbance) ([2]; DMSO-H2O 6:4): 1.51; ε (molar extinction coefficient) ([2]; DMSO-H2O 6:4): 23239.769; λmax ([2]; DMSO-H2O 6:4): 334.20 nm; A (absorbance) ([2]; HE (Peg-7 Glyceryl Cocoate)): 0.79; ε (molar extinction coefficient) ([2]; HE (Peg-7 Glyceryl Cocoate)): 12153.846; λmax ([2]; HE (Peg-7 Glyceryl Cocoate)): 332.80 nm; λmax ([2]; MeOH): 329.40 nm |

Source: publication PMC8869097, “Benzothiazole Derivatives as Multifunctional Antioxidant Agents for Skin Damage: Structure–Activity Relationship of a Scaffold Bearing a Five-Membered Ring System” (Antioxidants, 2022)
